Measured values published in US9908886B2 (Agency for Science, Technology and Research, priority 2012, dated 2018).
Structures can show the parent of a compound that is named as a salt.

Legend:
[1] = molecular target: MNK1 (Homo sapiens, UniProt Q9BUB5); test: In vitro MNK kinase assay (Caliper LabChip mobility shift); assay type: biochemical; settings: enzymatic, 1.2 mM ATP; read-out: IC50 Mnk1
[2] = molecular target: MNK2 (Homo sapiens (Human), UniProt Q9HBH9); test: as above; assay type: biochemical; settings: enzymatic, 250 μM ATP; read-out: IC50 Mnk2
MNK2, sequence (Q9HBH9 84-388): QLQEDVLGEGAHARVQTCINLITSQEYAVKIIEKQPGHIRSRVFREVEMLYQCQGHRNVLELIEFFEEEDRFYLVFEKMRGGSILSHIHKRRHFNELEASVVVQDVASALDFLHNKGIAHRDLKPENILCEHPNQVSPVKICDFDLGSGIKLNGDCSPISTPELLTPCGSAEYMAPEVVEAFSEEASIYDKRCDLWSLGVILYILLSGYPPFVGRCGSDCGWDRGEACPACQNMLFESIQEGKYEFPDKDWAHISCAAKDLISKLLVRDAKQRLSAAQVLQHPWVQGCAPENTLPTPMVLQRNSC

**Q.** For `CNc1cc(-c2ccc3ncc(-c4ccc(C#N)cc4)n3c2)ccc1C(=O)N1CCN(C)CC1` [Example 150, 4-(6-(3-(methylamino)-4-(4-methylpiperazine-1-carbonyl)phenyl)imidazo[1,2-a]pyridin-3-yl)benzonitrile], which IC50 [1] is on record?
**A.** Its IC50 is under 100 nM.

**Q.** What about the IC50 [2] of the same molecule?
**A.** Its IC50 is under 100 nM.

**Q.** What does the source list for `CN1CCN(C(=O)c2ccc(-c3ccc4ncc(-c5ccc(C#N)cc5)n4c3)cc2N(C)C)CC1` [Example 147, 4-(6-(3-(dimethylamino)-4-(4-methylpiperazine-1-carbonyl)phenyl)imidazo[1,2-a]pyridin-3-yl)benzonitrile]?
**A.** IC50 [1]: < 100 nM; IC50 [2]: < 100 nM

**Q.** For `CN1CCN(C(=O)c2ccc(-c3ccc4ncc(-c5ccc(C#N)cc5)n4c3)cc2F)CC1` [Example 142, 4-(6-(3-fluoro-4-(4-methylpiperazine-1-carbonyl)phenyl)imidazo[1,2-a]pyridin-3-yl)benzonitrile], which IC50 [1] is on record?
**A.** Its IC50 is under 1000 nM.

**Q.** What about the IC50 [2] of the same molecule?
**A.** Its IC50 is under 100 nM.

**Q.** Which results are given for `COc1cc(-c2ccc3ncc(-c4ccc(C#N)cc4)n3c2)ccc1C(=O)N1CCOCC1` [Example 158]?
**A.** IC50 [1]: < 1000 nM; IC50 [2]: < 100 nM

**Q.** Which IC50 [1] does the source give for `CN1CCN(C(=O)c2ccc(-c3ccc4ncc(-c5ccc(C#N)cc5)n4c3)cc2)CC1` [Example 95, 4-(6-(4-(4-Methylpiperazine-1-carbonyl)phenyl)imidazo[1,2-a]pyridin-3-yl)benzonitrile] here?
**A.** Its IC50 is under 100 nM.

**Q.** What about the IC50 [2] of the same molecule?
**A.** The IC50 was under 100 nM.

**Q.** Which IC50 [1] does the source give for `CN1CCN(C(=O)c2ccc(-c3ccc4ncc(-c5ccc6[nH]cnc6c5)n4n3)cc2)CC1` [Example 87, (4-(3-(1H-benzo[d]imidazol-5-yl)imidazo[1,2-b]pyridazin-6-yl)phenyl)(4-methylpiperazin-1-yl)methanone] here?
**A.** The IC50 was under 100 nM.

**Q.** And the IC50 [2]?
**A.** The IC50 was under 100 nM.

**Q.** How did the IC50 [1] turn out when `Cc1nnc(C2(C)CCN(C(=O)c3ccc(-c4ccc5ncc(-c6ccc(C#N)cc6)n5c4)cc3)CC2)o1` [Example 135, 4-(6-(4-(4-methyl-4-(5-methyl-1,3,4-oxadiazol-2-yl)piperidine-1-carbonyl)phenyl)imidazo[1,2-a]pyridin-3-yl)benzonitrile] was run?
**A.** The IC50 was under 100 nM.

**Q.** And the IC50 [2]?
**A.** The IC50 was under 100 nM.

**Q.** `CC1(N)CCN(C(=O)c2ccc(-c3cn4c(-c5ccc(C#N)cc5)cnc4cn3)cc2Cl)CC1` [Example 32, 4-(6-(4-(4-amino-4-methylpiperidine-1-carbonyl)-3-chlorophenyl)imidazo[1,2-a]pyrazin-3-yl)benzonitrile] was tested. Which IC50 [1] did it give?
**A.** Its IC50 is under 100 nM.

**Q.** What about the IC50 [2] of the same molecule?
**A.** The IC50 was under 1000 nM.

**Q.** How did the IC50 [1] turn out when `CNC1CCN(C(=O)c2ccc(-c3cn4c(-c5ccc(C#N)cc5)cnc4cn3)cc2)CC1` [Example 9, 4-(6-(4-(4-(methylamino)piperidine-1-carbonyl)phenyl)imidazo[1,2-a]pyrazin-3-yl)benzonitrile] was run?
**A.** The IC50 was under 1000 nM.

**Q.** What about the IC50 [2] of the same molecule?
**A.** The IC50 was under 1000 nM.

**Q.** Which IC50 [1] does the source give for `N#Cc1ccc(-c2cnc3ccc(-c4ccc(C(=O)N5CCC(N)CC5)cc4)cn23)cc1` [Example 109, 4-(6-(4-(4-aminopiperidine-1-carbonyl)phenyl)imidazo[1,2-a]pyridin-3-yl)benzonitrile] here?
**A.** The IC50 was under 100 nM.

**Q.** What about the IC50 [2] of the same molecule?
**A.** The IC50 was under 100 nM.

**Q.** What does the source list for `Cc1cc2ncc(-c3ccc(C#N)cc3)n2cc1-c1ccc(C(=O)N2CCN(C)CC2)cc1` [Example 138, 4-(7-methyl-6-(4-(4-methylpiperazine-1-carbonyl)phenyl)imidazo[1,2-a]pyridin-3-yl)benzonitrile]?
**A.** IC50 [1]: < 1000 nM; IC50 [2]: < 1000 nM

**Q.** For `CN1CCN(C(=O)c2ccc(-c3ccc4ncc(-c5ccc(C#N)cc5)n4c3)cc2)CC1=O` [Example 130, 4-(6-(4-(4-methyl-3-oxopiperazine-1-carbonyl)phenyl)imidazo[1,2-a]pyridin-3-yl)benzonitrile], which IC50 [1] is on record?
**A.** Its IC50 is under 100 nM.

**Q.** And the IC50 [2]?
**A.** Its IC50 is under 100 nM.

**Q.** Which results are given for `CN1CCN(C2CCN(C(=O)c3ccc(-c4ccc5ncc(-c6ccc(C#N)cc6)n5n4)cc3)CC2)CC1` [Example 70, 4-(6-(4-(4-(4-methylpiperazin-1-yl)piperidine-1-carbonyl)phenyl)imidazo[1,2-b]pyridazin-3-yl)benzonitrile]?
**A.** IC50 [1]: < 100 nM; IC50 [2]: < 100 nM

**Q.** For `CC1(N)CCN(C(=O)c2ccc(-c3cn4c(-c5ccc(C#N)cc5)cnc4cn3)cc2)CC1` [Example 23, 4-(6-(4-(4-amino-4-methylpiperidine-1-carbonyl)phenyl)imidazo[1,2-a]pyrazin-3-yl)benzonitrile Hydrochloride Salt], which IC50 [1] is on record?
**A.** The IC50 was under 1000 nM.

**Q.** What about the IC50 [2] of the same molecule?
**A.** The IC50 was under 100 nM.

**Q.** Which results are given for `CN1CCN(C2CCN(C(=O)c3ccc(-c4ccn5ncc(-c6ccc(C#N)cc6)c5n4)cc3)CC2)CC1` [Example 179, 4-(5-(4-(4-(4-methylpiperazin-1-yl)piperidine-1-carbonyl)phenyl)pyrazolo[1,5-a]pyrimidin-3-yl)benzonitrile]?
**A.** IC50 [1]: < 100 nM; IC50 [2]: < 100 nM

**Q.** How did the IC50 [1] turn out when `N#Cc1ccc(-c2cnc3ccc(-c4ccc(C(=O)N5CCOCC5)c(F)c4)cn23)cc1` [Example 162, 4-(6-(3-fluoro-4-(morpholine-4-carbonyl)phenyl)imidazo[1,2-a]pyridin-3-yl)benzonitrile] was run?
**A.** The IC50 was under 1000 nM.

**Q.** What about the IC50 [2] of the same molecule?
**A.** Its IC50 is under 1000 nM.

**Q.** With `N#Cc1ccc(-c2cnc3ccc(-c4ccc(C(=O)N5CCNC(=O)C5)cc4)nn23)cc1` [Example 68, 4-(6-(4-(3-oxopiperazine-1-carbonyl)phenyl)imidazo[1,2-b]pyridazin-3-yl)benzonitrile] as the molecule, how does the IC50 [1] read?
**A.** Its IC50 is under 100 nM.

**Q.** And the IC50 [2]?
**A.** Its IC50 is under 100 nM.

**Q.** Which results are given for `CC(=O)N1CCN(C(=O)c2ccc(-c3ccn4ncc(-c5ccc(C#N)cc5)c4n3)cc2)CC1` [Example 184]?
**A.** IC50 [1]: < 100 nM; IC50 [2]: < 100 nM

**Q.** With `CC(=O)NC1(C)CCN(C(=O)c2ccc(-c3ccc4ncc(-c5ccc(C#N)cc5)n4c3)cc2)CC1` [Example 99, N-(1-(4-(3-(4-cyanophenyl)imidazo[1,2-a]pyridin-6-yl)benzoyl)-4-methylpiperidin-4-yl)acetamide] as the molecule, how does the IC50 [1] read?
**A.** The IC50 was under 100 nM.

**Q.** What about the IC50 [2] of the same molecule?
**A.** Its IC50 is under 100 nM.

**Q.** With `CN1CCN(C(=O)c2ccc(-c3ccc4ncc(-c5ccc(C#N)cc5)n4c3)c(Cl)c2)CC1` [Example 153] as the molecule, how does the IC50 [1] read?
**A.** Its IC50 is under 1000 nM.

**Q.** What about the IC50 [2] of the same molecule?
**A.** The IC50 was under 1000 nM.

**Q.** Which IC50 [1] does the source give for `CS(=O)(=O)NC1CCN(C(=O)c2ccc(-c3ccc4ncc(-c5ccc(C#N)cc5)n4c3)cc2)CC1` [Example 111, N-(1-(4-(3-(4-cyanophenyl)imidazo[1,2-a]pyridin-6-yl)benzoyl)piperidin-4-yl)methanesulfonamide] here?
**A.** Its IC50 is under 100 nM.

**Q.** And the IC50 [2]?
**A.** The IC50 was under 100 nM.

**Q.** What does the source list for `CN1CCN(C(=O)c2ccc(-c3ccc4ncc(-c5ccc(C#N)cc5)n4c3)c(F)c2)CC1` [Example 140, 4-(6-(2-fluoro-4-(4-methylpiperazine-1-carbonyl)phenyl)imidazo[1,2-a]pyridin-3-yl)benzonitrile]?
**A.** IC50 [1]: < 100 nM; IC50 [2]: < 100 nM

**Q.** What does the source list for `CN1CCN(C(=O)c2ccc(-c3ccc4ncc(-c5ccc(C#N)cc5)n4n3)cc2F)CC1` [Example 73, 4-(6-(3-fluoro-4-(4-methylpiperazine-1-carbonyl)phenyl)imidazo[1,2-b]pyridazin-3-yl)benzonitrile]?
**A.** IC50 [1]: < 100 nM; IC50 [2]: < 100 nM

**Q.** `CC(=O)Nc1cc(-c2ccc3ncc(-c4ccc(C#N)cc4)n3c2)ccc1C(=O)N1CCOCC1` [Example 166, N-(5-(3-(4-cyanophenyl)imidazo[1,2-a]pyridin-6-yl)-2-(morpholine-4-carbonyl)phenyl)acetamide] was tested. Which IC50 [1] did it give?
**A.** Its IC50 is under 100 nM.

**Q.** And the IC50 [2]?
**A.** Its IC50 is under 100 nM.

**Q.** For `CN1CCN(C(=O)c2ccc(-c3ccc4ncc(-c5ccc(C#N)cc5)n4n3)cc2[N+](=O)[O-])CC1` [Example 79, 4-(6-(4-(4-methylpiperazine-1-carbonyl)-3-nitrophenyl)imidazo[1,2-b]pyridazin-3-yl)benzonitrile], which IC50 [1] is on record?
**A.** The IC50 was under 100 nM.

**Q.** What about the IC50 [2] of the same molecule?
**A.** Its IC50 is under 100 nM.

**Q.** With `N#Cc1ccc(-c2cnc3ccc(-c4ccc(C(=O)N5CCNCC5)cc4)nn23)cc1` [Example 65, 4-(6-(4-(piperazine-1-carbonyl)phenyl)imidazo[1,2-b]pyridazin-3-yl)benzonitrile] as the molecule, how does the IC50 [1] read?
**A.** Its IC50 is under 100 nM.

**Q.** What about the IC50 [2] of the same molecule?
**A.** The IC50 was under 100 nM.

**Q.** Which results are given for `CN1CCN(C2CCN(C(=O)c3ccc(-c4ccc5ncc(-c6ccc7c(c6)CC(=O)N7)n5n4)cc3)CC2)CC1` [Example 89, 5-(6-(4-(4-(4-methylpiperazin-1-yl)piperidine-1-carbonyl)phenyl)imidazol[1,2-b]pyridazin-3-yl)indolin-2-one]?
**A.** IC50 [1]: < 100 nM; IC50 [2]: < 100 nM

**Q.** What does the source list for `N#Cc1ccc(-c2cnc3ccc(-c4ccc(C(=O)N5CCC6(CCCCN6)CC5)cc4)nn23)cc1` [Example 71, 4-(6-(4-(1,9-diazaspiro[5.5]undecane-9-carbonyl)phenyl)imidazo[1,2-b]pyridazin-3-yl)benzonitrile]?
**A.** IC50 [1]: < 100 nM; IC50 [2]: < 100 nM

**Q.** What does the source list for `N#Cc1ccc(-c2cnc3ccc(-c4ccc(C(=O)N5CCOCC5)c(N5CCOCC5)c4)cn23)cc1` [Example 160, 4-(6-[3-(morpholin-4-yl)-4-(morpholin-4-ylcarbonyl)phenyl]imidazo[1,2-a]pyridin-3-yl)benzonitrile]?
**A.** IC50 [1]: < 100 nM; IC50 [2]: < 100 nM

**Q.** `CC1(N)CCN(C(=O)c2ccc(-c3ccc4ncc(-c5ccc(C#N)cc5)n4n3)cc2)CC1` [Example 58, 4-(6-(4-(4-amino-4-methylpiperidine-1-carbonyl)phenyl)imidazo[1,2-b]pyridazin-3-yl)benzonitrile] was tested. Which IC50 [1] did it give?
**A.** The IC50 was under 100 nM.

**Q.** What about the IC50 [2] of the same molecule?
**A.** Its IC50 is under 100 nM.

**Q.** `CC(=O)NC1CCN(C(=O)c2ccc(-c3ccc4ncc(-c5ccc(C#N)cc5)n4n3)cc2)CC1` [Example 57, N-(1-(4-(3-(4-cyanophenyl)imidazo[1,2-b]pyridazin-6-yl)benzoyl)piperidin-4-yl)acetamide] was tested. Which IC50 [1] did it give?
**A.** The IC50 was under 100 nM.

**Q.** What about the IC50 [2] of the same molecule?
**A.** Its IC50 is under 100 nM.

**Q.** For `CCC1(N)CCN(C(=O)c2ccc(-c3ccc4ncc(-c5ccc(C#N)cc5)n4c3)cc2)CC1` [Example 113, 4-(6-(4-(4-amino-4-ethylpiperidine-1-carbonyl)phenyl)imidazo[1,2-a]pyridin-3-yl)benzonitrile], which IC50 [1] is on record?
**A.** The IC50 was under 100 nM.

**Q.** And the IC50 [2]?
**A.** Its IC50 is under 100 nM.

**Q.** Which IC50 [2] does the source give for `CN1CCN(C(=O)c2ccc(-c3ccc4ncc(-c5ccc(O)cc5)n4c3)cc2)CC1` [Example 175, (4-(3-(4-hydroxyphenyl)imidazo[1,2-a]pyridin-6-yl)phenyl)(4-methylpiperazin-1-yl)methanone] here?
**A.** Its IC50 is under 100 nM.

**Q.** Which IC50 [1] does the source give for `O=C(c1ccc(-c2cn3c(-c4ccc(Cl)cc4)cnc3cn2)cc1)N1CCC(NC(=O)C(F)(F)F)CC1` [Example 48, N-(1-(4-(3-(4-chlorophenyl)imidazo[1,2-a]pyrazin-6-yl)benzoyl)piperidin-4-yl)-2,2,2-trifluoroacetamide] here?
**A.** The IC50 was under 1000 nM.
